“And” between values parts separate entries of the source, which are not always exact repeats. Equal entries are not always repeated. “Also recorded” adds a separate entry of the source.
Key:
[1] = Solubility noted for synthesized compounds; format: physicochemical; settings: noted with the synthesis
[2] = Surface tension and cmc, Kruss tensiometer K12; format: physicochemical
Method: Samples of which surface tensions were to be measured were prepared by mixing SLS and a cationic compound in a mole ratio of 1:1, wherein deionized water was used as water, and a container for measurement was immersed in a cleaning solution for more than 3 hours, washed with water and acetone, dried in an oven, and then used.
A ring method was used, and after measuring 5 times, a mean value was taken. Solutions of 1%, 0.1%, 0.01%, and 0.001% by weight ratio of each of the cationic compounds were prepared to use for the tests.

[3] = Phase stability (appearance) of sample solutions; settings: for Phase stability (appearance of sample solution): 1% aqueous solution
Excerpt: Concentration of a mixed system was controlled to 2% aqueous solution, and a mixing ratio of SLS and the cationic compound was controlled to 1:1 by mole ratio so that changes in physical properties could be remarkably shown (Table 1).

[4] = Stability to hard water (10,000 ppm CaCl2 hard water added until cloudiness); format: physicochemical; settings: for Precipitation in hard water: 0.5% (weight ratio), 100 ml sample
Method: After dissolving 11.69 g of CaCl2.2H2O in 1 liter of water to prepare hard water of 10,000 ppm, it was slowly added to a 0.5% aqueous solution sample, and stability to hard water was evaluated using the amount of hard water added until cloudiness began.
Hard water of 10,000 ppm prepared by dissolving 11.69 g of CaCl2.2H2O in 1 L of water was used for the tests. Stability to hard water was measured by adding hard water until pearl is appear, using 0.5% (weight ratio) of the cationic compound and 100 ml of the sample. This test was repeated by three times, and a mean value was taken.
Hard water at a 10,000 ppm concentration prepared by dissolving 11.69 g of CaCl2.2H2O in 1 L of water was used for the experiments. […] The tests were repeated by three times, and a mean value was measured.

[5] = Foaming property (initial foamability and foam stability), semi-micro TK method; format: physicochemical; settings: 1% solution
Excerpt: As samples for measuring initial foamability and foam stability, samples prepared under the same conditions as those used for measuring Krafft point were used (Table 14). […] The semi-micro TK method was used for measurement, and mean values were taken after measuring three times.
The tests were repeated three times and a mean value was taken.
Experiments were repeated three times, and a mean value was taken. For the experiment, a 1% aqueous solution was used.

[6] = Measurement of Krafft point (cloudiness on cooling, transparency on re-heating); format: physicochemical; settings: 1% solution
Method: In the Krafft point test, the temperature when the solution clouded through the previous test becomes transparent again while elevating the temperature were measured.
The temperature when cloudiness begins was measured while cooling the transparent cationic compound solution (condition of lowering temperature). Additionally, the temperature when the solution becomes transparent was measured while elevating the temperature of the cloudy solution (condition of elevating temperature).
Also, while elevating the temperature of the clouded solution, temperatures when the solutions became transparent again were measured (condition when elevating temperature).

Row | Solubility [1] | Surface tension ([2]; concentration 0.01%) [mN/m] | Surface tension ([2]; concentration 0.1%) [mN/m] | Surface tension ([2]; concentration 1%) [mN/m] | Compound | Phase stability (appearance of sample solution) [3] | Foaming property, result in words [5] | further results
1 | – | 31.67 | 29.59 | 31.94 | CCCCCCCCCCCC[N+](C)(C)[O-] [Synthesis Example 19, N-Dimethyl Lauryl Amineoxide] | transparent | foam immediately disappeared | Surface tension ([2]; concentration 0.001%): 53.88 mN/m; Precipitation in hard water [4]: not precipitated; Foaming property, initial foamability, 0 min. [5]: 210 mL; Foaming property, 1 min. ([5]; 1 min.): 55 mL
2 | soluble in acetone | – | – | – | N-(dimethyldodecylamino ethanol (EO)4 [Synthesis Example 7] | – | – | –
3 | – | 47.50 | 33.90 | 27.91 | 1.6-12-(N,N-methyloctylamino)ethanollhexane [Synthesis Example 17] | cloudiness | No foaming | Concentration at which the solution became transparent ([3]; cationic compound in water): 0.1 wt %

More lines, now with the values behind:

Row | Compound | Solubility [1] | Surface tension ([2]; concentration 0.01%) [mN/m] | Surface tension ([2]; concentration 0.1%) [mN/m] | Surface tension ([2]; concentration 1%) [mN/m] | Phase stability (appearance of sample solution) [3] | Foaming property, result in words [5] | further results
4 | CCCCCCCC[N+](C)(C)CCO [Synthesis Example 2, N-(dimethyloctylamino)ethanol] | insoluble in acetone | – | – | – | – | – | –
5 | CCCC[N+](C)([O-])CCCCCC[N+](C)([O-])CCCC (stereo not drawn) [Synthesis Example 23, 16-(N,N-butylmethylamineoxyl)hexane] | – | 64.05 | 56.46 | 46.51 | transparent | did not produce foam | Precipitation in hard water [4]: not precipitated
6 | N-(butyidimethylamino)ethanol [Synthesis Example 3] | insoluble in acetone | – | – | – | – | – | –
7 | C[N+](C)(CCO)CCCCCC[N+](C)(C)CCO.[I-].[I-] [Synthesis Example 14, 1,6-[2-(N,N-dimethylamino)ethanol]hexane] | – | 71.41 | 70.04 | 59.49 | transparent | did not produced foam; also recorded: No foaming | –
8 | CCCCCCCCCCCCOS(=O)(=O)[O-].[Na+] [SLS, sodium lauryl sulfate, reference compound] | – | 57.18 | 25.19 | 35.92 | – | maintains foam for 5 minutes almost constantly | Krafft point, when elevating temperature: solution transparent again [6]: 14 °C; Krafft point, when lowering (dropping) temperature: cloudiness begins ([6]; sulfate): 2˜3 °C and 2 °C and 2-3 °C; Hard water concentration ([4]; stability to hard water): 310 ppm; Foaming property, initial foamability, 0 min. [5]: 233 mL
9 | C[N+](C)(C)CCO [Synthesis Example 5, N-(trimethylamino)ethanol] | insoluble in acetone | – | – | – | – | – | –
10 | CC[N+](C)(C)CCO [Synthesis Example 4, N-(dimethylethylamino)ethanol] | soluble in acetone, insoluble in n-hexane | – | – | – | – | – | –
